The nature of one data set: physchem. The settings on record: ph 7.4 buffer, pH 7.4, aqueous buffer.
Data set [1] has as its system HER-2/neu positive breast cancer metastasized to bone. The data set can be described thus: Example IV: breast cancer metastasized to bone. It is filed as in vivo, human. The conditions noted are these: patient after failure of prior chemotherapy, oral 5 mg/kg twice daily plus HERCEPTIN
Here is the method:
After 90 days, oral cyclophosphamide at a dose of 3 mg/kg/day and doxorubicin administered intravenously weekly at a dose of 20 mg/m^2, are added to the drug regimen.

The subject of data set [2] is HER-2/neu positive breast cancer. The data set can be described thus: Example II: adjuvant therapy with PPARγ ligand and HERCEPTIN
The settings on record: patient, oral 5 mg/kg twice daily for one year, with HERCEPTIN 250 mg IV loading then 10 weekly doses of 125 mg. The format is in vivo, human.

Data set [3] relates to head and neck carcinoma where EGFR is overexpressed. The data set can be described thus: Example VII: head and neck carcinoma. The format is in vivo, human. The settings on record: after the 12 weeks of CETUXIMAB and cisplatin, oral 5 mg/kg twice daily for 12 weeks. As to the method: Concurrently cisplatin is infused every four weeks at 60 mg/m^2.
The test system of data set [4] is HER-2/neu positive breast cancer. The experiment in a line: Example I: adjuvant therapy after mastectomy. The conditions noted are these: patient, oral 5 mg/kg twice per day for five years after mastectomy. It is filed as in vivo, human.
Data set [5] has as its system non-small cell lung carcinoma where EGFR is overexpressed. The data set can be described thus: Example VI: non-small cell lung carcinoma metastasized to liver. The format is in vivo, human. The settings on record: patient, oral 5 mg/kg twice daily. Here is the method:
After one month, PPARγ ligand administration is continued in combination with infusion of cisplatin every four weeks at 60 mg/m^2 for 12 more weeks.

≈ marks a conversion by molar mass, not a printed value.

In turn, `COC(=O)c1ccccc1N[C@@H](Cc1ccc(OCCc2nc(-c3ccccc3)oc2C)cc1)C(=O)O` [GW7845, (S)-2-(1-carboxy-2-{4-[2-(5-methyl-2-phenyloxazol-4-yl)ethoxy]phenyl}ethylamino)benzoic acid methyl ester] yielded a solubility in “physchem” of 0.3 mg/mL (≈ 599 µM). For the same compound, the tumor burden entry in data set [1] is “reduced tumor burden”; in data set [3] it was “further reduced tumor burden”; in data set [5], “reduced tumor burden”. The results for the “recurrence of breast cancer” value in data set [2] and in data set [4] were “Recurrence of breast cancer does not occur” and “recurrence of breast cancer does not occur”, respectively.
